The record followed here is US11673891B2, “Imidazopyrimidine compounds and uses thereof” (Dana-Farber Cancer Institute, Inc., priority 2017, dated 2023).

Molecules are shown by their SMILES. “Also recorded” adds a separate entry of the source.

Assay [1] deals with Splenocytes isolated from 6-8 weeks old C57BL/6 mice. The experiment in a line: Mouse splenocyte in vitro stimulation, murine IL-6 by ELISA. It counts as cell-based. Conditions: C57BL/6 splenocytes, 33 μM, 18 hours. As for the experimental part:
Splenocytes isolated from 6-8 weeks old C57BL/6 mice and human adult PBMCs were stimulated for 18 hours with compound 037 and its analogs at 33 μM. Production of murine IL-6 and human TNF was assessed in cell-free supernatants by ELISA. Results are presented as scatter plot in which each dot represents median production of human TNF (N=3-5) or murine IL-6 (N=6) for each compound.
Spleens were harvested from 6-8 weeks old C57BL/6 mice. For splenocyte isolation, spleens were mashed through a […] strainer, washed with PBS, and erythrocytes were lysed with 2 min of incubation in ammonium chloride-based lysis buffer (BD Biosciences). Cells were then counted and plated 2×10^6 per well (round bottom 96-well plate) in 200 μl of complete culture medium (RPMI 1640 plus 10% heat-inactivated fetal bovine serum [FBS, GE Healthcare HyClone], 50 μM 2-mercaptoethanol, 2 mM 1-glutamine, 100 U/ml penicillin/streptomycin [Gibco ThermoFisher Scientific]) with 0.66 μl of DMSO-dissolved compounds (10 mM) in order to achieve a final compound concentration of 33 μM. After 18 hours of incubation (37° C., 5% CO2), plates were spun down (500×g, room temperature, 5 minutes) and supernatants were harvested for further analysis.
Background: In an ELISA, binding on a coated surface is turned into a signal by an enzyme label.

Assay [2] concerns human adult PBMCs. The experiment in a line: TNF production by ELISA after stimulation of human adult PBMCs. It counts as cell-based. The following applies: 33 μM, 18 hours; for TNF (Median) / Activity class / TNF % (Median): adult PBMCs; for TNF (Median) / TNF % (Median): N=3-5; for TNF (Median): unit not given (FIG. 6B/7B legends: TNF concentration in ng/ml); for Activity class: class according to TNF % as compared to R848; for TNF % (Median): median percentage TNF production as compared to R848. As to the method: Table 1. Activity of Exemplary Imidazopyrimidine Compounds on Stimulating TNF Production in PBMCs as Compared to Compound R848 Table 1 provides the activity of exemplary compounds on stimulating TNF production in PBMCs as compared to the benchmark compound R848. Specifically, TNF production was measured by ELISA after stimulation of adult PBMCs with compound 037 analog family or the compound R848 at 33 μM for 18 hours. Analogs are ranked top to bottom by median percentage TNF production (TNF %) as compared to R848 (N=3-5). The compounds have been classified in the following categories according to TNF %: high activity—class A: TNF %>15%; medium activity—class B: 1%<TNF %≤15%; low activity—class C: TNF %≤1%.
ELISAs and Multiplex-Analyte Assays. Supernatants derived from human PBMCs and DC stimulations were assayed by ELISA for TNF (ThermoFisher Scientific; Waltham, Mass., USA). Cytokine and chemokine expression profiles (e.g., IFNγ, IL-9, IL-10, IL-12 (p70), IL-13, IL-1β, IL-23, IL-27, IL-28A, IL-33, IL-6, MIP-3α/CCL20, and TNF) in cell culture supernatants were measured using a customized Milliplex® Human Th17 Magnetic Bead Panel according to the manufacturer's instructions (Millipore, Chicago, Ill., USA). Assays were read and analyzed on the Luminex® 100/200™ System and xPOTENT® software (Luminex, Austin, Tex.). A minimum threshold was set at the minimum detectable concentration for each individual assay, defined as three standard deviations above the mean background.
PBMCs were isolated from blood using a Ficoll density gradient. PBMCs either used fresh or were stored at 5×10^7 cells per vial in 1 mL RPMI containing 20% autologous plasma and 10% DMSO at −80° C. until use. Stimulation plates were prepared by transferring 0.66 μl of DMSO-dissolved compounds (10 mM) to each well of a round bottom 96-well plate. PBMCs isolated from human adult donors were resuspended at a concentration of 10^5 cells/200 μl of RPMI supplemented with 10% of platelet-poor plasma. 200 μl of the cell suspension were transferred to each well resulting in a final compound concentration of […]. After about 18 hours of incubation (37° C., 5% CO2), plates were spun down (500×g, room temperature, 5 minutes) and supernatants were harvested for further analysis.

`Cc1cnc2nc(-c3ccc(C)c(NC(=O)c4ccccc4C(F)(F)F)c3)cn2c1` [FRF-02-144-3]: the “Production of murine IL-6 by splenocytes (in words)” value in assay [1] was “activates both human PBMCs and mouse splenocytes; also recorded: active on both human and murine cells”. For the same compound, the “TNF (Median)” value in assay [2] (ELISA) stood at 5.397. Besides, in assay [2], the Activity class entry is given as “A (high activity—class A: TNF %>15%)” and the “TNF % (Median)” value is 99.81%. The “Production of human TNF by PBMCs (in words)” value in assay [2] (human adult PBMCs, ELISA) was “activates both human PBMCs and mouse splenocytes; also recorded: active on both human and murine cells”.
For the compound `Cc1ccc(-c2cn3cc(F)cnc3n2)cc1NC(=O)C(C)c1ccccc1` (centres unmarked) [FRF-03-081], in assay [2] (ELISA), the “TNF (Median)” value was found to be 0.3195. Besides, in assay [2], the Activity class entry was “B (medium activity—class B: 1%<TNF %≤15%)” and the “TNF % (Median)” value came out at 7.51%.
With `Cc1ccc(-c2cn3cc(F)cnc3n2)cc1NC(=O)C(C)(C)c1ccccc1` [FRF-03-084-1], the “TNF (Median)” value in assay [2] (ELISA) is recorded as 0.24. In assay [2], the Activity class result is listed as “B (medium activity—class B: 1%<TNF %≤15%)” and the “TNF % (Median)” value was 6.00%.
